Results reported in US4368203A, “Antibiotics and derivatives thereof having β-lactamase inhibitory activity and production thereof” (priority 1977, dated 1983).
≈ marks a conversion by molar mass, not a printed value. Like-named read-outs stand apart in the source and are kept apart here.

Experiments:
[1] = test system: Alcaligenes faecalis B-326; experiment: MIC, broth dilution method; format: cell-based; details: for MIC: Alcaligenes faecalis, read-out: Minimum inhibitory concentration
Procedure: (§1) Sodium salt of the antibiotic PS-7 was dissolved and diluted with the BRAIN HEART INFUSION BROTH "Eiken" at a concentration between 5 μg/ml and 100 μg/ml. The solution was further diluted with the same medium to obtain a series of geometric concentrations. To the serial dilutions were added the seed cultures prepared by shaking culture of various test microorganisms shown in Tab. 5 in the BRAIN HEART INFUSION GROTH at 28° C. for 18 hours, the final cell count being about 1×10^5 /ml. […] The lowest concentration at which no cell growth was observed was the minimum inhibitory concentration of the antibiotic PS-7 on the test microorganism. […] . The minimum inhibitory concentrations on test strains were determined in the same manner as mentioned above. […] For the comparison, the results on the known antibiotics Cephazolin and Cefoxitin are also given in the same table.

Citrobacter freundii E-9 [2] = experiment: MIC, broth dilution method; format: cell-based; details: for MIC: Citrobacter freundii, read-out: Minimum inhibitory concentration
Procedure: as §1

[3] = test system: Diplococcus pneumoniae Type III; experiment: MIC, broth dilution method; format: cell-based; details: Streptococcus pneumoniae, read-out: Minimum inhibitory concentration
Procedure: as §1

[4] = test system: Staphylococcus aureus FDA 209P; experiment: MIC, broth dilution method; format: cell-based; details: FDA209P, read-out: Minimum inhibitory concentration
Procedure: as §1

[5] = test system: Enterobacter cloacae E-16; experiment: MIC, broth dilution method; format: cell-based; details: for MIC: Enterobacter cloacae, read-out: Minimum inhibitory concentration
Procedure: Sodium salt of the antibiotic PS-7 was dissolved and diluted with the BRAIN HEART INFUSION BROTH "Eiken" at a concentration between 5 μg/ml and 100 μg/ml. The solution was further diluted with the same medium to obtain a series of geometric concentrations. To the serial dilutions were added the seed cultures prepared by shaking culture of various test microorganisms shown in Tab. 5 in the BRAIN HEART INFUSION GROTH at 28° C. for 18 hours, the final cell count being about 1×10^5 /ml. […] The lowest concentration at which no cell growth was observed was the minimum inhibitory concentration of the antibiotic PS-7 on the test microorganism. […] The minimum inhibitory concentrations on test strains were determined in the same manner as mentioned above.

[6] = test system: Staphylococcus aureus FDA 209P; experiment: MIC, broth dilution method; format: cell-based; details: for MIC: Staphylococcus aureus, FDA209P, Table 7, no unit in the head, read-out: Minimum inhibitory concentration
[7] = test system: Staphylococcus aureus Bx-1633; experiment: MIC, broth dilution method; details: BX1633, 20 h, read-out: Minimum inhibitory concentration
[8] = test system: Staphylococcus aureus Rassell; experiment: MIC, broth dilution method; details: 20 h, read-out: Minimum inhibitory concentration
[9] = test system: Streptococcus pyogenes NY-5; experiment: MIC, broth dilution method; details: for MIC: Streptococcus pyogenes, NY5, 20 h, read-out: Minimum inhibitory concentration
[10] = test system: Bacillus subtilis ATCC 6633; experiment: MIC, broth dilution method; details: ATCC6633, 20 h, read-out: Minimum inhibitory concentration
Serratia marcescens S-18 [11] = experiment: MIC, broth dilution method; details: S18, 20 h, read-out: Minimum inhibitory concentration
[12] = test system: Klebsiella pneumoniae K-2; experiment: MIC, broth dilution method; details: for MIC: Klebsiella pneumoniae, K2, 20 h, read-out: Minimum inhibitory concentration
Enterobacter sp. E-8 = experiment: MIC, broth dilution method; details: SP.E8, 20 h, read-out: Minimum inhibitory concentration
[13] = test system: Enterobacter aerogenes E-19; experiment: MIC, broth dilution method; details: Klebsiella aerogenes, E19, 20 h, read-out: Minimum inhibitory concentration
Proteus vulgaris P-5 [14] = experiment: MIC, broth dilution method; details: for MIC: Proteus vulgaris, P5, 20 h, read-out: Minimum inhibitory concentration
Proteus rettgeri P-7 = experiment: MIC, broth dilution method; details: Providencia rettgeri, P7, 20 h, read-out: Minimum inhibitory concentration
Proteus mirabilis P-6 = experiment: MIC, broth dilution method; details: P6, 20 h, read-out: Minimum inhibitory concentration
Proteus sp. P-22 = experiment: MIC, broth dilution method; details: 20 h, read-out: Minimum inhibitory concentration
Providencia sp. P-8 = experiment: MIC, broth dilution method; details: SP.P8, 20 h, read-out: Minimum inhibitory concentration
[15] = test system: Diplococcus pneumoniae Type III; experiment: MIC, broth dilution method; format: cell-based
Proteus vulgaris P-5 [16] = experiment: Potentiating and synergistic effect, pulp disc inhibition zone on agar plate; format: cell-based
Procedure: (§2) 10 ml of 2.5 folds diluted nutrient agar (pH 7.0) containing 50 μg/ml of penicillin G or cephaloridine was seeded with the β-lactamase producing and β-lactam-resistant microorganisms and poured in a 9 cm Petri dish to provide the bio-assay agar plate. […] A control assay plate was similarly prepared without penicillin G or cephaloridine. As reference antibiotics, 10,000 μg/ml of penicillin G or 20 μl of cephaloridine were disc-assayed under the same conditions.
(§3) Cepholoridine was added to a 2.5-times diluted nutrient agar, pH 7.0 and the medium was inoculated with a β-lactam-producing strain that produceds β-lactamase. Ten ml of the medium was spread and solidified in a petri dish of 9 cm in diameter to prepare an assay plate. […] Each 20 μl of the solution and its 2- and 4-times diluted solutions was soaked in a pulp disc of 8 mm in diameter. To the surface of the above nutrient agar was placed the pulp disc and the size of the growth inhibitory zone around the disc was examined after incubation at 35° C. for 18 hours. […] In addition, for the comparison, a similar experiment was also performed with a pulp disk soaked with 20 μl of 10,000 μg/ml Penicillin G or Cepholoridine solution in place of the antibiotic PS-7.

Citrobacter freundii E-9 [17] = experiment: as above; format: cell-based
Procedure: (§4) 10 ml of 2.5 folds diluted nutrient agar (pH 7.0) containing 50 μg/ml of penicillin G or cephaloridine was seeded with the β-lactamase producing and β-lactam-resistant microorganisms and poured in a 9 cm Petri dish to provide the bio-assay agar plate. On this assay plate, 8 mm of pulp discs each containing 20 μl of antibiotic PS-6 solution at the concentration of 240 μg/ml were placed and incubated at 35° C. for 18 hours before reading the inhibition zones. A control assay plate was similarly prepared without penicillin G or cephaloridine. As reference antibiotics, 10,000 μg/ml of penicillin G or 20 μl of cephaloridine were disc-assayed under the same conditions.

Serratia marcescens S-18 [18] = experiment: as above; format: cell-based
Procedure: as §4

[19] = test system: β-lactamase-producing, β-lactam-resistant bacteria; experiment: Increase of the antibiotic activity of other antibiotics (summary in words); format: cell-based; details: β-lactamase-producing bacteria such as Proteus vulgaris, Serratia marcescens
Procedure: as §2, §3

[20] = B326, Table 7, no unit in the head
[21] = E9, Table 7, no unit in the head, lactamase-producing strain
[22] = E16, Table 7, no unit in the head, lactamase-producing strain
[23] = Table 9, lactamase producing organism
[24] = Table 6, agar containing 50 μg/ml of cephaloridine, disc 20 μl, PS-6 240 μg/ml, reference antibiotics 10,000 μg/ml
[25] = Table 6, agar containing 50 μg/ml of penicillin G, disc 20 μl, PS-6 240 μg/ml, reference antibiotics 10,000 μg/ml
[26] = Table 9, 10% of horse blood in the medium

Cc1nnc(SCC2=C(C(=O)O)N3C(=O)[C@@H](NC(=O)Cn4cnnn4)[C@H]3SC2)s1 [Cefazorin]
MIC ([1]; B326, Table 5, 35° C. 20 hours): 6.25 µg/mL (≈ 13.8 µM) | MIC [1, 20]: 6.25 µg/mL (≈ 13.8 µM) | MIC (Citrobacter freundii E-9 [2]; E9, 20 h): > 100 µg/mL | MIC (Citrobacter freundii E-9 [2]; [21]): > 100 µg/mL | MIC ([3]; 20 h): 0.125 µg/mL (≈ 0.275 µM) | MIC [3]: 0.125 µg/mL (≈ 0.275 µM) | MIC ([4]; Table 5, 35° C. 20 hours): 0.25 µg/mL (≈ 0.55 µM) | MIC [5, 22]: > 100 µg/mL | MIC [6]: 0.25 µg/mL (≈ 0.55 µM) | MIC [7]: 0.5 µg/mL (≈ 1.1 µM) | MIC [8]: 1 µg/mL (≈ 2.2 µM) | MIC [9]: 0.25 µg/mL (≈ 0.55 µM) | MIC [10]: 0.5 µg/mL (≈ 1.1 µM) | MIC (Serratia marcescens S-18 [11]): > 100 µg/mL | MIC [12]: 6.25 µg/mL (≈ 13.8 µM) | MIC (Enterobacter sp. E-8): 3.13 µg/mL (≈ 6.89 µM) | MIC [13]: > 100 µg/mL | MIC (Proteus vulgaris P-5 [14]): > 100 µg/mL | MIC (Proteus rettgeri P-7): 25 µg/mL (≈ 55 µM) | MIC (Proteus mirabilis P-6): 6.25 µg/mL (≈ 13.8 µM) | MIC (Proteus sp. P-22): > 100 µg/mL | MIC (Providencia sp. P-8): 50 µg/mL (≈ 110 µM)

CO[C@@]1(NC(=O)Cc2cccs2)C(=O)N2C(C(=O)O)=C(COC(N)=O)CS[C@@H]21 [Cefoxitin]
MIC ([1]; B326, Table 5, 35° C. 20 hours): 1.56 µg/mL (≈ 3.65 µM) | MIC [1, 20]: 1.56 µg/mL (≈ 3.65 µM) | MIC (Citrobacter freundii E-9 [2]; E9, 20 h, Table 5, betalactamase producer): > 100 µg/mL | MIC (Citrobacter freundii E-9 [2]; [21]): > 100 µg/mL | MIC ([3]; 20 h, Table 5, 10% horse blood supplemented into the medium): 2.5 µg/mL (≈ 5.85 µM) | MIC ([4]; Table 5, 35° C. 20 hours): 2.5 µg/mL (≈ 5.85 µM) | MIC ([5]; E16, 20 h, Table 5, betalactamase producer): > 100 µg/mL | MIC [5, 22]: > 100 µg/mL | MIC [6]: 2.5 µg/mL (≈ 5.85 µM) | MIC ([15]; Streptococcus pneumoniae, Table 7, no unit in the head, horse serum in the medium at 10%, read-out: Minimum inhibitory concentration): 2.5 µg/mL (≈ 5.85 µM) | MIC [7]: 2.5 µg/mL (≈ 5.85 µM) | MIC [8]: 5 µg/mL (≈ 11.7 µM) | MIC [9]: 1.25 µg/mL (≈ 2.92 µM) | MIC [10]: 1.25 µg/mL (≈ 2.92 µM) | MIC (Serratia marcescens S-18 [11]): 50 µg/mL (≈ 117 µM) | MIC [12]: 6.25 µg/mL (≈ 14.6 µM) | MIC (Enterobacter sp. E-8): 12.5 µg/mL (≈ 29.2 µM) | MIC [13]: > 100 µg/mL

O=C(Cc1cccs1)N[C@@H]1C(=O)N2C(C(=O)[O-])=C(C[n+]3ccccc3)CS[C@H]12 [cephaloridine]
MIC ([1]; B326, 20 h): 3.13 µg/mL (≈ 7.53 µM) | Minimum inhibitory concentration ([1]; Table 9): 3.13 µg/mL (≈ 7.53 µM) | MIC (Citrobacter freundii E-9 [2]; E9, 20 h): > 100 µg/mL | Minimum inhibitory concentration (Citrobacter freundii E-9 [2]; [23]): > 100 µg/mL | MIC ([3]; 20 h): 0.01 µg/mL (≈ 0.0241 µM) | MIC ([4]; 20 h): 0.04 µg/mL (≈ 0.0963 µM) | MIC ([5]; E16, 20 h): > 100 µg/mL | Minimum inhibitory concentration [5, 23]: > 100 µg/mL | zone of inhibition at 10000 µg/mL (Proteus vulgaris P-5 [16]; Proteus vulgaris, P5, 18 h, read-out: Diameter of inhibitory zone, No addition): 12 mm | zone of inhibition at 240 µg/mL (Proteus vulgaris P-5 [16]; Proteus vulgaris, P5, 18 h, read-out: Inhibition zone, Control): 12 mm | Inhibition zone, with cephaloridine (Proteus vulgaris P-5 [16]; [24]): 12.0 mm | Inhibition zone, with penicillin G (Proteus vulgaris P-5 [16]; [25]): 12.0 mm | Diameter of inhibitory zone, Cephaloridine-added (Proteus vulgaris P-5 [16]; Table 8, comparison disc 20 μl of 10,000 μg/ml, cephaloridine in the agar): 12.0 mm | zone of inhibition at 240 µg/mL (Citrobacter freundii E-9 [17]; Citrobacter freundii, E9, 18 h, read-out: Inhibition zone, Control): 12 mm | Inhibition zone, with cephaloridine (Citrobacter freundii E-9 [17]; [24]): 12.0 mm | Inhibition zone, with penicillin G (Citrobacter freundii E-9 [17]; [25]): 12.0 mm | zone of inhibition at 240 µg/mL (Serratia marcescens S-18 [18]; Serratia marcescens, S18, 18 h, read-out: Inhibition zone, Control): 11 mm | Inhibition zone, with cephaloridine (Serratia marcescens S-18 [18]; [24]): 11.0 mm | Inhibition zone, with penicillin G (Serratia marcescens S-18 [18]; [25]): 11.0 mm | Synergistic enhancement of the activity of penicillin G or cephaloridine (β-lactam antibiotics) [19]: no synergistic effect | Synergistic enhancement of the activity of penicillin G or cephaloridine (β-lactam antibiotics) ([19]; listed as Cephaloridine): No enhancement of antimicrobial activity | Minimum inhibitory concentration ([6]; Table 9, ester dissolved in methanol, final methanol not above 10%): 0.04 µg/mL (≈ 0.0963 µM) | Minimum inhibitory concentration [15, 26]: 0.01 µg/mL (≈ 0.0241 µM) | MIC [9]: 0.01 µg/mL (≈ 0.0241 µM) | Minimum inhibitory concentration [9, 26]: 0.01 µg/mL (≈ 0.0241 µM) | MIC [12]: 20 µg/mL (≈ 48.1 µM) | Minimum inhibitory concentration [12, 23]: 20.0 µg/mL (≈ 48.1 µM) | MIC (Proteus vulgaris P-5 [14]): > 100 µg/mL | Minimum inhibitory concentration (Proteus vulgaris P-5 [14]; [23]): > 100 µg/mL
